Results: ChEMBL document CHEMBL1201862, “PubChem BioAssay data set” (2004)
Several values for one entry are separate records, joined by “and”; a condition that tells them apart may be missing. Equal values may be shown once.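 A five-concentration, 48-hour dose response in 96-well plates underlies each endpoint, interpolated linearly between surrounding concentrations. At the GI50, growth is halved.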 Activity calls are given as the source filed them. Rule as the data show it: active = GI50 up to about 1.1 µM and inactive = higher. Where a SMILES comes first, the peptide text is derived from it. The star is where a group is joined. Boc = CC(C)(C)OC(=O)*

Columns and labels:
Assay in all cases: NCI tumour cell line growth inhibition, 48 h
786-0 = test system: 786-0
ACHN = test system: ACHN
HCT-15 = test system: HCT-15
HL-60 = test system: HL-60
HOP-62 = test system: HOP-62
HOP-92 = test system: HOP-92
K562 = test system: K562
KM12 = test system: KM12
MDA-MB-231 = test system: MDA-MB-231
MDA-N = test system: MDA-N
MOLT-4 = test system: MOLT-4
NCI-H23 = test system: NCI-H23
NCI-H522 = test system: NCI-H522
OVCAR-3 = test system: OVCAR-3
OVCAR-4 = test system: OVCAR-4
OVCAR-8 = test system: OVCAR-8
SN12C = test system: SN12C
SW-620 = test system: SW-620
SK-OV-3 = test system: SK-OV-3

Row | Compound | GI50 (786-0) | GI50 (ACHN) | GI50 (HCT-15) | GI50 (HL-60) | GI50 (HOP-62) | GI50 (HOP-92) | GI50 (K562) | GI50 (KM12) | GI50 (MDA-MB-231) | GI50 (MDA-N) | GI50 (MOLT-4) | GI50 (NCI-H23) | GI50 (NCI-H522) | GI50 (OVCAR-3) | GI50 (OVCAR-4) | GI50 (OVCAR-8) | GI50 (SN12C) | GI50 (SW-620) | GI50 (SK-OV-3)
1 | COc1cc2c3cc1Oc1cc(ccc1O)C[C@@H]1c4c(cc(OC)c(O)c4Oc4ccc(cc4)C[C@@H]3N(C)CC2)CC[N+]1(C)C | 55.3 µM (inactive) | > 100 µM (inactive) | 70.1 µM | > 100 µM (inactive) | 6.95 µM (inactive) | 11.6 µM (inactive) | 42 µM (inactive) | 27.1 µM (inactive) | 25.1 µM (inactive) | > 100 µM (inactive) | 61.8 µM (inactive) | 52 µM (inactive) | 24.9 µM (inactive) | 25.7 µM (inactive) | 73.8 µM (inactive) | 58.7 µM (inactive) | > 100 µM (inactive) | 27.2 µM (inactive) | 
2 | CCC1NC(=O)C(NC(=O)c2ncccc2O)C(C)OC(=O)C(c2ccccc2)NC(=O)C2CC(=O)CCN2C(=O)C(Cc2ccccc2)N(C)C(=O)C2CCCN2C1=O (configuration not stated) | > 100 µM (inactive) | > 100 µM (inactive) | > 100 µM | 52.6 µM (inactive) | > 100 µM (inactive) | > 100 µM (inactive) | > 100 µM (inactive) | > 100 µM (inactive) | > 100 µM (inactive) | > 100 µM (inactive) |  | > 100 µM (inactive) | > 100 µM (inactive) | > 100 µM (inactive) | 57.1 µM (inactive) | > 100 µM (inactive) | > 100 µM (inactive) | > 100 µM (inactive) | > 100 µM (inactive)
3 | O=C1CCC(CCc2nc3ccccc3[nH]2)(c2ccccc2)C(=O)N1 (configuration not stated) | > 100 µM (inactive) | > 100 µM (inactive) | > 100 µM | > 100 µM (inactive) | > 100 µM (inactive) | 83.6 µM (inactive) | 64 µM (inactive) | > 100 µM (inactive) | > 100 µM (inactive) | > 100 µM (inactive) |  | > 100 µM (inactive) | 47.4 µM (inactive) | > 100 µM (inactive) | > 100 µM (inactive) | > 100 µM (inactive) | > 100 µM (inactive) | > 100 µM (inactive) | > 100 µM (inactive)
4 | CC1NC(=O)C2Cc3ccc(O)c(c3)Oc3ccc(cc3)C(O)C(C(=O)N2C)N(C)C(=O)C(C)NC(=O)C(Cc2ccc(O)cc2)N(C)C(=O)C(C)NC1=O (configuration not stated) | 38 µM (inactive) | > 100 µM (inactive) | > 100 µM | 13.9 µM (inactive) | 34.7 µM (inactive) | 15.8 µM (inactive) | > 100 µM (inactive) | 9.68 µM (inactive) | 11.1 µM (inactive) | 13.1 µM (inactive) | 19.4 µM (inactive) | 29.2 µM (inactive) | 9.44 µM (inactive) | 25.3 µM (inactive) | 35.1 µM (inactive) | 24.7 µM (inactive) | > 10 µM (inactive) | 23.4 µM (inactive) | 
5 | CC(=O)Nc1ccc(C(=O)NN2C(=O)CSC2c2ccc(O)cc2)cc1 (configuration not stated) | > 100 µM (inactive) | > 100 µM (inactive) | > 100 µM | > 100 µM (inactive) | > 100 µM (inactive) | > 100 µM (inactive) | > 100 µM (inactive) | > 100 µM (inactive) | > 100 µM (inactive) | > 100 µM (inactive) | > 100 µM (inactive) | > 100 µM (inactive) |  | > 100 µM (inactive) | > 100 µM (inactive) | > 100 µM (inactive) | > 100 µM (inactive) | > 100 µM (inactive) | > 100 µM (inactive)
6 | CC(=O)Nc1cc2cc(N)ccc2oc1=O | > 100 µM (inactive) | > 100 µM (inactive) | > 100 µM | > 100 µM (inactive) | > 100 µM (inactive) | > 100 µM (inactive) | > 100 µM (inactive) | > 100 µM (inactive) | > 100 µM (inactive) | > 100 µM (inactive) | > 100 µM (inactive) | > 100 µM (inactive) | > 100 µM (inactive) | > 100 µM (inactive) | > 100 µM (inactive) | > 100 µM (inactive) | > 100 µM (inactive) | > 100 µM (inactive) | 
7 | CC(=O)OCC1OC(N2C(C)=C(C(C)=O)C(c3ccco3)C(C#N)=C2S)C(OC(C)=O)C(OC(C)=O)C1OC(C)=O (configuration not stated) | > 100 µM (inactive) | > 100 µM (inactive) | > 100 µM | > 100 µM (inactive) | > 100 µM (inactive) | > 100 µM (inactive) | > 100 µM (inactive) | > 100 µM (inactive) | > 100 µM (inactive) | > 100 µM (inactive) | > 100 µM (inactive) | > 100 µM (inactive) | > 100 µM (inactive) | > 100 µM (inactive) | > 100 µM (inactive) | > 100 µM (inactive) | > 100 µM (inactive) | > 100 µM (inactive) | 
8 | Cc1ccc(CC(Cc2ccc(C)cc2C(=O)O)C(=O)O)cc1 (configuration not stated) | > 100 µM (inactive) | > 100 µM (inactive) | > 100 µM | > 100 µM (inactive) | > 100 µM (inactive) | > 100 µM (inactive) |  | > 100 µM (inactive) | > 100 µM (inactive) | > 100 µM (inactive) | > 100 µM (inactive) | > 100 µM (inactive) | > 100 µM (inactive) | > 100 µM (inactive) | > 100 µM (inactive) | > 100 µM (inactive) | > 100 µM (inactive) | > 100 µM (inactive) | > 100 µM (inactive)
9 | COC(=O)C(Cc1c(C2Nc3ccccc3C2CC(NC(C)=O)C(=O)OC)[nH]c2ccccc12)NC(C)=O (configuration not stated) | > 100 µM (inactive) | > 100 µM (inactive) | > 100 µM | > 100 µM (inactive) | > 100 µM (inactive) | > 100 µM (inactive) | > 100 µM (inactive) | > 100 µM (inactive) | > 100 µM (inactive) | > 100 µM (inactive) | > 100 µM (inactive) | > 100 µM (inactive) | > 100 µM (inactive) | > 100 µM (inactive) |  | > 100 µM (inactive) | > 100 µM (inactive) | > 100 µM (inactive) | > 100 µM (inactive)
10 | Cc1cc(=O)[nH]c2cc(NC(=O)C(C)NC(=O)C(C)NC(=O)C(C)NC(=O)OC(C)(C)C)ccc12 (configuration not stated) | > 15 µM (inactive) | > 15 µM (inactive) | > 15 µM | > 15 µM (inactive) | > 15 µM (inactive) | > 15 µM (inactive) | > 15 µM (inactive) | > 15 µM (inactive) | > 15 µM (inactive) | > 15 µM (inactive) | > 15 µM (inactive) | > 15 µM (inactive) | > 15 µM (inactive) |  | > 15 µM (inactive) | > 15 µM (inactive) | > 15 µM (inactive) | > 15 µM (inactive) | 
11 | CC(=O)OC1COC(n2c(N)c(C#N)c(-c3ccccc3)c(C#N)c2=S)C(OC(C)=O)C1OC(C)=O (configuration not stated) | 36.9 µM (inactive) and 39.3 µM (inactive) | 45.7 µM (inactive) and 71.4 µM (inactive) | 52.6 µM and 72.6 µM | 23.2 µM (inactive) | > 100 µM (inactive) | 19.8 µM (inactive) and 14.8 µM (inactive) |  | 67 µM (inactive) and 40.7 µM (inactive) | 50.9 µM (inactive) and 56.6 µM (inactive) | 26.6 µM (inactive) and 27.8 µM (inactive) | 24.6 µM (inactive) and 24.3 µM (inactive) |  | 38.5 µM (inactive) and 40.8 µM (inactive) | 28.9 µM (inactive) and 33.2 µM (inactive) | 41 µM (inactive) and 38.7 µM (inactive) | 31.6 µM (inactive) and 56.8 µM (inactive) | 48.1 µM (inactive) and 36.7 µM (inactive) | 56.2 µM (inactive) and 64.3 µM (inactive) | 38.3 µM (inactive) and 45 µM (inactive)
12 | CCOC(=O)c1nc2cc(F)cc(F)c2[nH]c1=O | > 100 µM (inactive) | > 100 µM (inactive) | > 100 µM | > 100 µM (inactive) | > 100 µM (inactive) | > 100 µM (inactive) | > 100 µM (inactive) | > 100 µM (inactive) | > 100 µM (inactive) | > 100 µM (inactive) | > 100 µM (inactive) | > 100 µM (inactive) |  | > 100 µM (inactive) | > 100 µM (inactive) | > 100 µM (inactive) | > 100 µM (inactive) | > 100 µM (inactive) | > 100 µM (inactive)
13 | O=CNC(Cc1c[nH]cn1)C(=O)O (configuration not stated) | > 100 µM (inactive) | > 100 µM (inactive) | > 100 µM | > 100 µM (inactive) | > 100 µM (inactive) | > 100 µM (inactive) | > 100 µM (inactive) | > 100 µM (inactive) | > 100 µM (inactive) | > 100 µM (inactive) |  | > 100 µM (inactive) | > 100 µM (inactive) | > 100 µM (inactive) | > 100 µM (inactive) | > 100 µM (inactive) | > 100 µM (inactive) | > 100 µM (inactive) | > 100 µM (inactive)
14 | O=c1cc(O)c2c(O)cc(O)cc2o1 | > 100 µM (inactive) | > 100 µM (inactive) | > 100 µM | > 100 µM (inactive) | > 100 µM (inactive) | > 100 µM (inactive) | > 100 µM (inactive) |  | > 100 µM (inactive) | > 100 µM (inactive) | > 100 µM (inactive) | > 100 µM (inactive) | > 100 µM (inactive) | > 100 µM (inactive) | > 100 µM (inactive) | > 100 µM (inactive) | > 100 µM (inactive) | > 100 µM (inactive) | 
15 | COC(=O)C(C)NC(=O)C(CCSC)NC(=O)C(Cc1ccccc1)NC(=O)OC(C)(C)C (stereo not drawn) (Boc-Phe-Met-Ala-OMe; configuration not given here) | > 100 µM (inactive) | > 100 µM (inactive) | > 100 µM | 63.2 µM (inactive) | > 100 µM (inactive) | > 100 µM (inactive) |  | > 100 µM (inactive) | > 100 µM (inactive) | > 100 µM (inactive) | > 100 µM (inactive) | > 100 µM (inactive) | > 100 µM (inactive) | > 100 µM (inactive) | > 100 µM (inactive) | > 100 µM (inactive) | > 100 µM (inactive) | > 100 µM (inactive) | > 100 µM (inactive)
